According to US20030162222A1, “Method for selecting enzyme inhibitors” (priority 2000, published 2003):

Tests used:
[1] = system: 32D cells which express the mutant Bcr-Abl T315M; assay: Proliferation and survival of 32D cells expressing mutant Bcr-Abl T315M in the absence of interleukin-3; type: cell-based, murine; settings: 32D cells expressing Bcr-Abl T315M; no interleukin-3; PP1 25 μM or STI571 1 μM
Experimental: (§1) Bcr-Abl is a constitutionally active tyrosine kinase which induces different forms of leukaemia in the animal model and humans.
(§2) The example is carried out by transfixing 32D cells with a plasmid by electroporation, i.e. with the aid of a current pulse. The plasmid codes for either wt Bcr-Abl or e.g. for the mutant T315M. These plasmids additionally carry a resistance marker; in this case a puromycin resistance gene. Transfixed cells are therefore selected by means of puromycin.
(§3) The cells are then characterised biologically. For this purpose interleukin-3 is removed from them as an essential survival and growth factor.
(§4) Both substances prevent both proliferation and survival of cells which express Bcr-Abl wt, and do so to the same extent (FIGS. 17 and 18).

[2] = system: 32D cells which express wt Bcr-Abl; assay: Proliferation and survival of 32D cells expressing wt Bcr-Abl in the absence of interleukin-3; type: cell-based, murine; settings: 32D cells expressing Bcr-Abl wt; no interleukin-3; PP1 25 μM or STI571 1 μM
Experimental: as §1, §2, §3, §4

[3] = system: Src kinases; settings: partly from the literature; cited from earlier work

Structure (SMILES): Cc1ccc(-c2nn(C(C)(C)C)c3ncnc(N)c23)cc1 [PP1]
- proliferation (cell growth) [1]: complete cessation of cell growth
- proliferation of cells [2]: prevent
- inhibition of Src kinases [3]: inhibited
